In patent US20080138395A1, “Pharmaceutical Composition for the Prevention and Control of Cancer” (priority 2005, published 2008):

System: H69: human, small cell lung carcinoma
Assay: Apoptosis (Annexin testing system) and defective cells in H69 tumor cells in vitro
Format: cell-based
Conditions: 10 days of treatment
Excerpt: The effect of reduced glutathion (G-SH) and anthocyans and betacyans on tumor cell lines, specifically H69: human, small cell lung carcinoma, was examined by in vitro studies, both individually and with various combinations of the ingredient. G-SH and betalain were used in the form of dry extract from beta vulgaris (product: Betatom by Messrs. Sprüh-Atom Schumann & Sohn GmbH, Karlsruhe) and, for purposes of comparison, anthocyans in the form of dry extract from cassis (black currant) and vaccinium (blueberry). The tumor cells were sown in vitro in DMEM with 10% FCS. The final concentration of G-SH, Betatom, cassis and vaccinium, the substances added, was 1 mM. Apoptosis was measured with an Annexin testing system. All tests were repeated once. The effect on H69 tumor cells may be gathered from the table below. After treatment of the cells for ten days, the number both of apoptotic and defective cells was clearly higher in comparison with untreated controls.

[1] = 1 mM, difference to untreated control
[2] = final concentration of substances added 1 mM, DMEM with 10% FCS

## N[C@@H](CCC(=O)N[C@@H](CS)C(=O)NCC(=O)O)C(=O)O [GSH, gamma glutamyl cysteinyl glycin]
[1]
  apoptotic cells: variation compared with control (%): −5%
  defective cells: variation compared with control (%): 8.9%
[2]
  apoptotic cells (% of total cells): 21.9 % of total cells
  defective cells (% of total cells): 37.9 % of total cells
